# Results reported in patent US6866864B2, “Compositions and methods of use in the treatment of angiogenesis and vascular-related disorders” (priority 2000, dated 2005).
# Assays:
# [1] = tested on: human smooth muscle cell migration; assay: Human smooth muscle cell migration toward plasma from MI patients (modified Boyden chamber); assay type: cell-based; conditions: for synergy with antioxidant on the inhibition of human smooth muscle cell migration: garlic ingredients 1 μM each plus ascorbic acid 3 μM, FIG. 5; for effect on human smooth muscle cell migration toward plasma from MI patients: antioxidants alone, 3 μM each, FIG. 3
# Experimental: Graph showing the modified Boyden chamber used to examine the effect of garlic ingredients, antioxidants, and combinations on human smooth muscle cell migration toward plasma obtained from acute myocardial infarction patients (MI) during balloon angioplasty and stent coronary intervention.
# The procedure is as follow: 20 μl plasma was placed in the bottom chamber (A), smooth muscle suspension 1×10^6 cells in 5 μl with or without the various garlic active ingredients, antioxidants or combinations were placed in the top chamber (B). The chamber B was fitted over chamber A, covered and placed in a CO2 (5%)/O2 (95%) incubator for 22 hours at 37° C. The filter from chamber B was taken out of the chamber and the cells on the top were scraped off using a cell scraper. The filter was placed in formaldehyde, Triton X100, washing buffer solution, stained with Rhodamine phloyden, and then a washing solution as shown in station C (front view) and D (side view). The filter was then dried and put in a fluorescence plate reader to read the degree of fluorescence.
# [2] = tested on: bFGF-induced angiogenesis on the CAM; assay: FGF2 (bFGF)-induced angiogenesis in the chick chorioallantoic membrane (CAM) model; assay type: in vivo
# Experimental: In Vivo Angiogenesis: Ten-day old chick embryos were purchased from Spafas, Inc. (Preston, Conn.) and were incubated at 37° with 55% humidity generally referred to as chick chorioallantoic membrane (CAM) model. A small hole was punctured in the shell concealing the air sac with a hypodermic needle. A second hole was punctured in the shell on the broadside of the egg directly over an avascular portion of the embryonic membrane, as observed during candling. A false air sac was created beneath the second hole by the application of negative pressure to the first hole, which caused the CAM to separate form the shell. A window, approximately 1.0 cm2, was cut the in the shell over the dropped CAM with the use of a small crafts grinding wheel (Dermal, Division of Emerson Electric Company (Racine, Wis.) which allowed direct access to the underlying CAM.
# Filter disks of #1 filter paper (Whatman International, United Kingdom) were soaked in 3 mg/ml cortisone acetate (Sigma, St. Louis, Mo.) in a solution of 95% ethanol and water and subsequently air dried under sterile conditions. […] Blood vessel branch points in the 5 mm filter disk area were counted at 30× magnification in a blinded fashion as a size-independent quantitative indicator of vascular sprouting in response to growth factors. As angiogenesis is characterized by the sprouting of new vessels in response to growth factors, counting blood vessel branch points is a useful quantitative means of obtaining an angiogenic index. […] Data was evaluated in terms of average number of blood vessel branch points per treatment group±standard deviation of measurement. […]
# Microscopic Analysis of CAM Sections: CAM tissue directly beneath FGF2-saturated filter disk was resected from embryos treated 48 hours prior with compounds or controls. […] Digital images of CAM sections adjacent to filters were collected using a 3-CCD color video camera system (Toshiba America, New York, N.Y.) and analyzed with the Image-Pro Plus software (Media Cybernetics, Silver Spring, Md.). […]
# HUVEC = assay: FGF2-induced endothelial cell tube formation on Matrigel; assay type: cell-based, human
# Experimental: For the different in vitro assays human smooth muscle cells and human umbilical vein endothelial (HUVEC) cells were obtained from (Clonetics, Walkersville, Md.). Endothelial cells (EC) were grown to 80-90% confluence in Endothelial Growth Medium (EGM) containing hEGF 10 ng/ml, hydrocortisone […], gentamicin […], amphotercin-B 50 ug/ml, Blood Brain Extract 0.012 mg/ml and 2% Fetal Bovine Serum equilibrated with 95% air/5% CO2 at 37° C. HUVEC cells will be serially passed in Endothelial Growth in cell culture flasks coated with gelatin 0.2%, (Sigma, St. Louis, Mo.). Confluent cultures of endothelial cells between the 3rd and 6th passages were washes with HBSS and harvested using 0.025% trypsin/0.01% EDTA and counted by hemacytometer. […]
# Microscopic Analysis of Endothetial Cell Tube Formation: […] Digital images of microtiter well sections were collected using a 3-CCD color video camera system ([…], New York, N.Y.) and analyzed with the Image-Pro Plus software (Media Cybernetics, Silver Spring, Md.). The area and major axis length of stained cells having a tubular morphology on the Matrigel surface counted from 5 images/well. Area data is expressed in units of 10^4 square microns and length data is expressed as length/area in units of mm/mm^2. […]
# [3] = tested on: tumor growth in the CAM model; assay: Chick chorioallantoic membrane tumor assay model; assay type: in vivo; conditions: different types of tumor; by inhibiting tumor-induced angiogenesis
# Experimental: In addition to the angiogenesis assays described above where the effect of the garlic sulfur containing ingredient Alliin±antioxidants were evaluated, the anti-tumor efficacy for Alliin+antioxidants were evaluated as well. Ten million tumor cells were placed on the surface of each CAM and were cultured for one week. The resulting tumors were excised and cut into 50 mg fragments. Cheresh et al., Cell 58: 945-953 (1989), Brooks et al., J. Cell Biol., 122:1351 (1993) and as described herein. These fragments were placed on additional CAMs and treated topically the following day with 0.11 mg in 25 μl of Alliin with and without anti-oxidant or saline. Forty eight hours later, CAMs were excised from the egg and the number of blood vessels entering the tumors were counted (as vessel branch points).
# Data presented as mean blood vessel number per treatment group (+/− standard error of measurement). Each treatment group incorporated at least ten tumors per experiment. Representative tumors were photographed at 10× magnification. Tumors were then excised from the egg and tumor weights were determined for each tumor. Data presented as mean tumor weight per treatment group (+/− standard error of measurement). Statistical analyses were performed using Student's t-test.
compound,measurement,setting,value
C=CCSSCC=C [allyl disulfide],synergy with antioxidant on the inhibition of human smooth muscle cell migration,[1],synergy
O=C1O[C@H]([C@@H](O)CO)C(O)=C1O [ascorbic acid],effect on human smooth muscle cell migration toward plasma from MI patients,[1],lack of effect
Alliin,efficacy on FGF2-induced angiogenesis in the CAM model,"[2]; Alliin ± antioxidants, FIG. 11B, n=6",Dose-dependent efficacy
same,blockade of bFGF-induced angiogenesis on the CAM,[2]; applied to filter disk or injected intravenously 24 h after bFGF,at least 92+/−10%
same,inhibition of growth of new blood vessels induced by bFGF (vessel branch points),"[2]; applied to the growth factor saturated filter 24 h after bFGF, CAMs excised after three days",92 +/−10%
same,synergy with antioxidant on the inhibition of human smooth muscle cell migration,[1],synergy
same,inhibition of smooth muscle cell migration toward plasma from MI subjects,"[1]; qualitative, micrographs treated vs untreated, FIG. 4",Inhibition of smooth muscle cell migration
same,efficacy on FGF2-induced EC tube formation,"HUVEC; Alliin ± antioxidants, FIG. 10, n=6",Concentration-dependent efficacy
same,inhibition of cytokine stimulated tube formation,"HUVEC; HUVEC, FGF2 50 ng/ml, alliin 0-0.011 mg",90-100%
same,tumor growth in the CAM model,[3],inhibited
ethylene diphenyl urea [EDU],effect on human smooth muscle cell migration toward plasma from MI patients,[1],lack of effect
